Source: patent publication US20210045385A1, “PYRIDAZINONE-SUBSTITUTED KETOXIMES AS HERBICIDES” (FMC Corporation, priority 2018, published 2021)

Assays:
Type in all cases: in vivo
[1] = tested on: ducksalad (Heteranhera limosa); assay: Test B flooded paddy test, visual plant response rating; conditions: 250 g ai/ha, Flood, applied to paddy water, 2-leaf stage, evaluated after 13 to 15 days
Method in brief: (§1)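 Test pots are flooded 3 cm above the soil at treatment, and the test substance is introduced into this standing water. After keeping the flood level and growing plants, treated at the 2-leaf stage, for 13 to 15 days under glass, injury is assessed visually versus controls.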

rice (Oryza sativa) = assay: as above; conditions: 250 g ai/ha, Flood, applied to paddy water, 2-leaf stage, evaluated after 13 to 15 days
Method in brief: as §1

[2] = tested on: sedge, umbrella (small-flower umbrella sedge, Cyperus difformis); assay: as above; conditions: 250 g ai/ha, Flood, applied to paddy water, 2-leaf stage, evaluated after 13 to 15 days
Method in brief: as §1

[3] = tested on: barnyardgrass (Echinochloa crus-galli); assay: as above; conditions: 250 g ai/ha, Flood, applied to paddy water, 2-leaf stage, evaluated after 13 to 15 days
Method in brief: as §1

[4] = tested on: foxtail, giant (giant foxtail, Setaria faberii); assay: Test A preemergence, visual plant response rating; conditions: for Foxtail, Giant plant response rating: 125 g ai/ha, preemergence, 0 to 100 scale, 0 no effect, 100 complete control; for Foxtail, Giant plant response rating (0 to 100 scale): 500 g ai/ha Preemergence, approx. 10 days
Method in brief: (§2)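 Ratings use a 0–100 visual scale (100 = complete control) against untreated controls, scored about 10 days after greenhouse treatment. Test chemicals were formulated in surfactant-containing non-phytotoxic solvent and applied either as soil spray after planting (preemergence) or onto one- to two-leaf, 2–10 cm plants (postemergence).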

kochia (Kochia scoparia) [5] = assay: Test A preemergence, visual plant response rating; conditions: for Kochia plant response rating: 125 g ai/ha, preemergence, 0 to 100 scale, 0 no effect, 100 complete control; for Kochia plant response rating (0 to 100 scale): 500 g ai/ha Preemergence, approx. 10 days
Method in brief: as §2

[6] = tested on: ragweed (common ragweed, Ambrosia elatior); assay: Test A preemergence, visual plant response rating; conditions: for Ragweed plant response rating: 125 g ai/ha, preemergence, 0 to 100 scale, 0 no effect, 100 complete control; for Ragweed plant response rating (0 to 100 scale): 500 g ai/ha Preemergence, approx. 10 days
Method in brief: as §2

[7] = tested on: Italian ryegrass (Lolium multiflorum); assay: Test A preemergence, visual plant response rating; conditions: for Ryegrass, Italian plant response rating: 125 g ai/ha, preemergence, 0 to 100 scale, 0 no effect, 100 complete control; for Ryegrass, Italian plant response rating (0 to 100 scale): 500 g ai/ha Preemergence, approx. 10 days
Method in brief: as §2

[8] = tested on: barnyardgrass (Echinochloa crus-galli); assay: Test A preemergence, visual plant response rating; conditions: for Barnyardgrass plant response rating: 125 g ai/ha, preemergence, 0 to 100 scale, 0 no effect, 100 complete control; for Barnyardgrass plant response rating (0 to 100 scale): 500 g ai/ha Preemergence, approx. 10 days
Method in brief: as §2

[9] = tested on: pigweed (Amaranthus retroflexus); assay: Test A preemergence, visual plant response rating; conditions: for Pigweed plant response rating: 125 g ai/ha, preemergence, 0 to 100 scale, 0 no effect, 100 complete control; for Pigweed plant response rating (0 to 100 scale): 500 g ai/ha Preemergence, approx. 10 days
Method in brief: as §2

[10] = tested on: blackgrass (Alopecurus myosuroides); assay: Test A postemergence, visual plant response rating; conditions: for Blackgrass plant response rating (0 to 100 scale): 500 g ai/ha, postemergence, 0 is no effect, 100 is complete control; for Blackgrass plant response rating: Postemergence, 125 g ai/ha, 0 to 100 scale (0 no effect, 100 complete control)
Method in brief: as §2

[11] = tested on: foxtail, giant (giant foxtail, Setaria faberii); assay: Test A postemergence, visual plant response rating; conditions: for Foxtail, Giant plant response rating (0 to 100 scale): 500 g ai/ha, postemergence, 0 is no effect, 100 is complete control; for Foxtail, Giant plant response rating: Postemergence, 125 g ai/ha, 0 to 100 scale (0 no effect, 100 complete control)
Method in brief: as §2

[12] = tested on: galium (catchweed bedstraw, Galium aparine); assay: Test A postemergence, visual plant response rating; conditions: for Galium plant response rating (0 to 100 scale): 500 g ai/ha, postemergence, 0 is no effect, 100 is complete control; for Galium plant response rating: Postemergence, 125 g ai/ha, 0 to 100 scale (0 no effect, 100 complete control)
Method in brief: as §2

kochia (Kochia scoparia) [13] = assay: Test A postemergence, visual plant response rating; conditions: for Kochia plant response rating (0 to 100 scale): 500 g ai/ha, postemergence, 0 is no effect, 100 is complete control; for Kochia plant response rating: Postemergence, 125 g ai/ha, 0 to 100 scale (0 no effect, 100 complete control)
Method in brief: as §2

[14] = tested on: ragweed (common ragweed, Ambrosia elatior); assay: Test A postemergence, visual plant response rating; conditions: for Ragweed plant response rating (0 to 100 scale): 500 g ai/ha, postemergence, 0 is no effect, 100 is complete control; for Ragweed plant response rating: Postemergence, 125 g ai/ha, 0 to 100 scale (0 no effect, 100 complete control)
Method in brief: as §2

[15] = tested on: Italian ryegrass (Lolium multiflorum); assay: Test A postemergence, visual plant response rating; conditions: for Ryegrass, Italian plant response rating (0 to 100 scale): 500 g ai/ha, postemergence, 0 is no effect, 100 is complete control; for Ryegrass, Italian plant response rating: Postemergence, 125 g ai/ha, 0 to 100 scale (0 no effect, 100 complete control)
Method in brief: as §2

[16] = tested on: wheat (Triticum aestivum); assay: Test A postemergence, visual plant response rating; conditions: for Wheat plant response rating (0 to 100 scale): 500 g ai/ha, postemergence, 0 is no effect, 100 is complete control; for Wheat plant response rating: Postemergence, 125 g ai/ha, 0 to 100 scale (0 no effect, 100 complete control)
Method in brief: as §2

corn (Zea mays) = assay: Test A postemergence, visual plant response rating; conditions: for Corn plant response rating (0 to 100 scale): 500 g ai/ha, postemergence, 0 is no effect, 100 is complete control; for Corn plant response rating: Postemergence, 125 g ai/ha, 0 to 100 scale (0 no effect, 100 complete control)
Method in brief: as §2

[17] = tested on: barnyardgrass (Echinochloa crus-galli); assay: Test A postemergence, visual plant response rating; conditions: for Barnyardgrass plant response rating (0 to 100 scale): 500 g ai/ha, postemergence, 0 is no effect, 100 is complete control; for Barnyardgrass plant response rating: Postemergence, 125 g ai/ha, 0 to 100 scale (0 no effect, 100 complete control)
Method in brief: as §2

[18] = tested on: pigweed (Amaranthus retroflexus); assay: Test A postemergence, visual plant response rating; conditions: for Pigweed plant response rating (0 to 100 scale): 500 g ai/ha, postemergence, 0 is no effect, 100 is complete control; for Pigweed plant response rating: Postemergence, 125 g ai/ha, 0 to 100 scale (0 no effect, 100 complete control)
Method in brief: as §2

SMILES | Plant response rating, Ducksalad (0 to 100 scale, 0 is no effect, 100 is complete control) [1] | Plant response rating, Rice (0 to 100 scale, 0 is no effect, 100 is complete control) (rice (Oryza sativa)) | Plant response rating, Sedge, Umbrella (0 to 100 scale, 0 is no effect, 100 is complete control) [2] | Plant response rating, Barnyardgrass (0 to 100 scale, 0 is no effect, 100 is complete control) [3] | Foxtail, Giant plant response rating [4] | Foxtail, Giant plant response rating (0 to 100 scale) [4] | Kochia plant response rating (kochia (Kochia scoparia) [5]) | Kochia plant response rating (0 to 100 scale) (kochia (Kochia scoparia) [5]) | Ragweed plant response rating [6] | Ragweed plant response rating (0 to 100 scale) [6] | Ryegrass, Italian plant response rating [7] | Ryegrass, Italian plant response rating (0 to 100 scale) [7] | Barnyardgrass plant response rating [8] | Barnyardgrass plant response rating (0 to 100 scale) [8] | Pigweed plant response rating [9] | Pigweed plant response rating (0 to 100 scale) [9] | Blackgrass plant response rating (0 to 100 scale) [10] | Blackgrass plant response rating [10] | Foxtail, Giant plant response rating (0 to 100 scale) [11] | Foxtail, Giant plant response rating [11] | also measured
CCCO/N=C(\c1c(O)c(C)nn(C)c1=O)c1cccc2ccccc12 [Compound 80] | 0 | 0 | 0 | 0 | 60 | 100 | 0 | 10 | 50 | 100 | 10 | 30 | 60 | 80 | 20 | 100 | 90 | 70 | 80 | 60 | Galium plant response rating (0 to 100 scale) [12]: 90; Galium plant response rating [12]: 80; Kochia plant response rating (0 to 100 scale) (kochia (Kochia scoparia) [13]): 60; Kochia plant response rating (kochia (Kochia scoparia) [13]): 30; Ragweed plant response rating (0 to 100 scale) [14]: 90; Ragweed plant response rating [14]: 80; Ryegrass, Italian plant response rating (0 to 100 scale) [15]: 70; Ryegrass, Italian plant response rating [15]: 20; Wheat plant response rating (0 to 100 scale) [16]: 0; Wheat plant response rating [16]: 0; Corn plant response rating (0 to 100 scale) (corn (Zea mays)): 20; Corn plant response rating (corn (Zea mays)): 10; Barnyardgrass plant response rating (0 to 100 scale) [17]: 60; Barnyardgrass plant response rating [17]: 50; Pigweed plant response rating (0 to 100 scale) [18]: 80; Pigweed plant response rating [18]: 70
CCCO/N=C(/c1c(O)c(C)nn(C)c1=O)c1cccc2ccccc12 [Compound 81] | 0 | 0 | 0 | 0 | 60 | 100 | 10 | 10 | 90 | 100 | 20 | 50 | 60 | 70 | 20 | 100 | 80 | 70 | 80 | 60 | Galium plant response rating (0 to 100 scale) [12]: 90; Galium plant response rating [12]: 80; Kochia plant response rating (0 to 100 scale) (kochia (Kochia scoparia) [13]): 60; Kochia plant response rating (kochia (Kochia scoparia) [13]): 40; Ragweed plant response rating (0 to 100 scale) [14]: 90; Ragweed plant response rating [14]: 80; Ryegrass, Italian plant response rating (0 to 100 scale) [15]: 20; Ryegrass, Italian plant response rating [15]: 30; Wheat plant response rating (0 to 100 scale) [16]: 0; Wheat plant response rating [16]: 0; Corn plant response rating (0 to 100 scale) (corn (Zea mays)): 20; Corn plant response rating (corn (Zea mays)): 20; Barnyardgrass plant response rating (0 to 100 scale) [17]: 70; Barnyardgrass plant response rating [17]: 40; Pigweed plant response rating (0 to 100 scale) [18]: 90; Pigweed plant response rating [18]: 60
C#CCO/N=C(/c1c(O)c(C)nn(C)c1=O)c1cccc2ccccc12 [Compound 82, 5-hydroxy-2,6-dimethyl-4-[(E)-[(2-propyn-1-yloxy)imino]-1-naphthalenylmethyl]-3(2H)-pyridazinone] | 0 | 0 | 0 | 0 | 100 | 100 | 10 | 80 | 90 | 100 | 90 | 100 | 60 | 100 | 100 | 100 | 100 | 90 | 80 | 70 | Galium plant response rating (0 to 100 scale) [12]: 100; Galium plant response rating [12]: 90; Kochia plant response rating (0 to 100 scale) (kochia (Kochia scoparia) [13]): 90; Kochia plant response rating (kochia (Kochia scoparia) [13]): 80; Ragweed plant response rating (0 to 100 scale) [14]: 100; Ragweed plant response rating [14]: 90; Ryegrass, Italian plant response rating (0 to 100 scale) [15]: 80; Ryegrass, Italian plant response rating [15]: 80; Wheat plant response rating (0 to 100 scale) [16]: 80; Wheat plant response rating [16]: 50; Corn plant response rating (0 to 100 scale) (corn (Zea mays)): 30; Corn plant response rating (corn (Zea mays)): 0; Barnyardgrass plant response rating (0 to 100 scale) [17]: 80; Barnyardgrass plant response rating [17]: 50; Pigweed plant response rating (0 to 100 scale) [18]: 90; Pigweed plant response rating [18]: 70
C#CCO/N=C(\c1c(O)c(C)nn(C)c1=O)c1cccc2ccccc12 [Compound 83, 5-hydroxy-2,6-dimethyl-4-[(Z)-[(2-propyn-1-yloxy)imino]-1-naphthalenylmethyl]-3(2H)-pyridazinone] | 75 | 0 | 70 | 0 | 90 | 100 | 20 | 100 | 100 | 100 | 80 | 100 | 80 | 100 | 100 | 100 | 100 | 90 | 80 | 70 | Galium plant response rating (0 to 100 scale) [12]: 100; Galium plant response rating [12]: 90; Kochia plant response rating (0 to 100 scale) (kochia (Kochia scoparia) [13]): 90; Kochia plant response rating (kochia (Kochia scoparia) [13]): 80; Ragweed plant response rating (0 to 100 scale) [14]: 100; Ragweed plant response rating [14]: 90; Ryegrass, Italian plant response rating (0 to 100 scale) [15]: 100; Ryegrass, Italian plant response rating [15]: 90; Wheat plant response rating (0 to 100 scale) [16]: 60; Wheat plant response rating [16]: 40; Corn plant response rating (0 to 100 scale) (corn (Zea mays)): 40; Corn plant response rating (corn (Zea mays)): 20; Barnyardgrass plant response rating (0 to 100 scale) [17]: 80; Barnyardgrass plant response rating [17]: 60; Pigweed plant response rating (0 to 100 scale) [18]: 90; Pigweed plant response rating [18]: 80
